# Measured values as given in patent US20050233453A1, “6-O-sulfated N-acetylheparosan and hematopoietic stem cell growth auxiliary agent” (SEIKAGAKU CORPORATION, priority 2004, published 2005).
# Test system: plasma
# Test: Measurement of activated partial thromboplastin time (APTT)
# Conditions: test substance concentration of 100 μg/ml, rat plasma
# Description: Hundred μl of plasma obtained by centrifuging at 1000×g for 10 minutes blood sampled from descending aorta of a rat with 1/10 volume of 3.2% […] and 100 μl of a different concentration of N-desulfated-N-reacetylated heparin or each 6-O-sulfated-N-acetylheparosan (Fraction I derived from Reaction-A, Fraction II derived from Reaction-A, and Reaction-B Product) were placed in a cup for measurement and the whole was kept at 37° C. for 1 minute. Thereafter, 100 μl of Actin (trade name: Mitsubishi Pharma Corporation) kept at 37° C. beforehand was added thereto, followed by maintenance at the temperature for 2 minutes. Then, 100 μl of a 0.02M calcium chloride solution kept at 37° C. was added and a time required for the occurrence of coagulation from this point was measured by means of an automatic blood coagulation-measuring apparatus (KC-10A; manufactured by Amelung).
substance,measurement,value
N-desulfated-N-reacetylated heparin [reference compound],APTT,≥ 80 s
